What was measured:
Experiment in all cases: scanMAX KINOMEscan (Eurofins)
Format in all cases: binding
ACVR1 = ACVR1 (Homo sapiens, UniProt Q04771); details: 1000 nM, read-out: Percent Control
Excerpt: (§1) Supplement cb5c00097_si_002.xlsx, sheet "Table S6 (Eurofins Selectivity)" | column: Percent Control

FES = FES (Homo sapiens, UniProt P07332); details: read-out: Percent Control
Excerpt: as §1

CAMK1D = CAMK1D (Homo sapiens, UniProt Q8IU85); details: read-out: Percent Control
Excerpt: as §1

MAP3K1 = MAP3K1 (Homo sapiens, UniProt Q13233); details: compound concentration 100 nM; Entrez MAP3K1; read-out: Percent Control
Excerpt: as §1

IGF1R = IGF1R (Homo sapiens, UniProt P08069); details: read-out: Percent Control
IGF1R, sequence (P08069 31-1367): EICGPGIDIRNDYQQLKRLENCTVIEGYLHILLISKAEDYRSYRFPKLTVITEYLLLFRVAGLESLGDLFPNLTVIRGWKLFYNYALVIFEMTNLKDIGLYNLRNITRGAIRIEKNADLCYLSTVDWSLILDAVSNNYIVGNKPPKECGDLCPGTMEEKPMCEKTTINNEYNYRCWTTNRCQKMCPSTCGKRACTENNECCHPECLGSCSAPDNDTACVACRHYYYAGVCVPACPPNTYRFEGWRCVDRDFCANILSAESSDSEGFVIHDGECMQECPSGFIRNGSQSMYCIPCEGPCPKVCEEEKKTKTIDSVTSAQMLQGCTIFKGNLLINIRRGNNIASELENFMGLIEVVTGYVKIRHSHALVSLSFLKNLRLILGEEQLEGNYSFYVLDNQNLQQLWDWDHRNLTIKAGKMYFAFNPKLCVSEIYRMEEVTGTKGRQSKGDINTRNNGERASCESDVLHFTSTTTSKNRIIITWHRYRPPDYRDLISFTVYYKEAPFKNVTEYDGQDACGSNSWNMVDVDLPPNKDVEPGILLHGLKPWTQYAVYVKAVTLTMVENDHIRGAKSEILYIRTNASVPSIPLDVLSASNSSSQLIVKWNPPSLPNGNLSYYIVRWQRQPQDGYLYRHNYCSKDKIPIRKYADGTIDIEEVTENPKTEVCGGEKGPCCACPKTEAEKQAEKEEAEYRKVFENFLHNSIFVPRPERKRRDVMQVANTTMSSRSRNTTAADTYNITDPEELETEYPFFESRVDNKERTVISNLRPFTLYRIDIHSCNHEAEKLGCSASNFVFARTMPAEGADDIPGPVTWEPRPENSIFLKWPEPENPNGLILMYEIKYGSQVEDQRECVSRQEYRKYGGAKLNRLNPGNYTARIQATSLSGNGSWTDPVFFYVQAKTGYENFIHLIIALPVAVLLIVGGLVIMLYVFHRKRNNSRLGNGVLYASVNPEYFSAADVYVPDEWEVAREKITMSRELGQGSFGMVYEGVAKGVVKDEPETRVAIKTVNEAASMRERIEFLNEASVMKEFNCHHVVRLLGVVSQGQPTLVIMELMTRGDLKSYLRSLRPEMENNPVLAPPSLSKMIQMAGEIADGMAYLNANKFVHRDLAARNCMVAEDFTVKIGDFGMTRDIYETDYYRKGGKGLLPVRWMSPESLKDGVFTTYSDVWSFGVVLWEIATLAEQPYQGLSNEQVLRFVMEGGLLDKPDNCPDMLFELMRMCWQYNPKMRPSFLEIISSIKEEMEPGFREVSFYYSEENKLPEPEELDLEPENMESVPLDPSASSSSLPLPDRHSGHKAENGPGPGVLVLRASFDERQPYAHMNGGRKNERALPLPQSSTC
Excerpt: as §1

STK35 = STK35 (Homo sapiens, UniProt Q8TDR2); details: compound concentration 100 nM; Entrez STK35; read-out: Percent Control
Excerpt: as §1

ANKK1 = ANKK1 (Homo sapiens, UniProt Q8NFD2); details: 1000 nM, read-out: Percent Control
Excerpt: as §1

IKK-epsilon = IKK-epsilon (Homo sapiens, UniProt Q14164); details: 1000 nM, read-out: Percent Control
Excerpt: as §1

TAOK3 = TAOK3 (Homo sapiens, UniProt Q9H2K8); details: 1000 nM, read-out: Percent Control
Excerpt: as §1

YES = YES (Homo sapiens, UniProt P07947); details: 1000 nM, read-out: Percent Control
Excerpt: as §1

YSK4 = YSK4 (Homo sapiens, UniProt Q56UN5); details: compound concentration 100 nM; Entrez MAP3K19; read-out: Percent Control
Excerpt: as §1

PDGFRA = PDGFRA (Homo sapiens, UniProt P16234); details: 1000 nM, read-out: Percent Control
Excerpt: as §1

TLK1 = TLK1 (Homo sapiens, UniProt Q9UKI8); details: compound concentration 100 nM; Entrez TLK1; read-out: Percent Control
Excerpt: as §1

BMPR2 = BMPR2 (Homo sapiens, UniProt Q13873); details: read-out: Percent Control
BMPR2, sequence (Q13873 27-1038): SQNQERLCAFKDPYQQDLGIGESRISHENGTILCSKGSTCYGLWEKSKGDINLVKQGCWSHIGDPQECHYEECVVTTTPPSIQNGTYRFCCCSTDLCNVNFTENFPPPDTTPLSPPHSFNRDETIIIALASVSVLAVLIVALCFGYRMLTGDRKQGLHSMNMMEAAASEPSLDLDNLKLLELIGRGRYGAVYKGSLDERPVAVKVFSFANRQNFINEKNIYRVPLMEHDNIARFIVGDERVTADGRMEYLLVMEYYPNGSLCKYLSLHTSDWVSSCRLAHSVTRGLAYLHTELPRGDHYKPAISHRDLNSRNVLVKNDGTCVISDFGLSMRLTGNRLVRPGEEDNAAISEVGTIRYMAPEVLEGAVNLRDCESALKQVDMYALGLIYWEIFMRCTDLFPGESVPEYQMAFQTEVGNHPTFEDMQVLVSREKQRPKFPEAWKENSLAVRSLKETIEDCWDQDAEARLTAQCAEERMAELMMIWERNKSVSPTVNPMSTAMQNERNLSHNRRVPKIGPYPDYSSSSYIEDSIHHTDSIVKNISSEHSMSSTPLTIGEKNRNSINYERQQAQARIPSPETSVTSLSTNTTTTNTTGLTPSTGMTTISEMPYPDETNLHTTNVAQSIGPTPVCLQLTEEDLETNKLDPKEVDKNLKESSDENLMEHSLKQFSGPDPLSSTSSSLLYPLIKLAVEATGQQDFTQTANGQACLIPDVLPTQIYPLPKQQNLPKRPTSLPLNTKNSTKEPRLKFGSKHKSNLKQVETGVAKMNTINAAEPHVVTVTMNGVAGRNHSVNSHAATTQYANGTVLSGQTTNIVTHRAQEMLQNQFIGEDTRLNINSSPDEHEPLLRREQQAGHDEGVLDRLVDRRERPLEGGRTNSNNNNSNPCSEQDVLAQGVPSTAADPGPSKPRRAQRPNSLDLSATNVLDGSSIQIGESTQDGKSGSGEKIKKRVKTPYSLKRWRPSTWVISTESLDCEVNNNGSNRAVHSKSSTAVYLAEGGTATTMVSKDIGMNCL
Excerpt: as §1

RET = RET (Homo sapiens, UniProt P07949); details: compound concentration 100 nM; Entrez RET; read-out: Percent Control
Excerpt: as §1

ACVR2B = ACVR2B (Homo sapiens, UniProt Q13705); details: 1000 nM, read-out: Percent Control
Excerpt: as §1

PRKCH = PRKCH (Homo sapiens, UniProt P24723); details: compound concentration 100 nM; Entrez PRKCH; read-out: Percent Control
Excerpt: as §1

AURKB = AURKB (Homo sapiens, UniProt Q96GD4); details: read-out: Percent Control
AURKB, sequence (Q96GD4 whole entry): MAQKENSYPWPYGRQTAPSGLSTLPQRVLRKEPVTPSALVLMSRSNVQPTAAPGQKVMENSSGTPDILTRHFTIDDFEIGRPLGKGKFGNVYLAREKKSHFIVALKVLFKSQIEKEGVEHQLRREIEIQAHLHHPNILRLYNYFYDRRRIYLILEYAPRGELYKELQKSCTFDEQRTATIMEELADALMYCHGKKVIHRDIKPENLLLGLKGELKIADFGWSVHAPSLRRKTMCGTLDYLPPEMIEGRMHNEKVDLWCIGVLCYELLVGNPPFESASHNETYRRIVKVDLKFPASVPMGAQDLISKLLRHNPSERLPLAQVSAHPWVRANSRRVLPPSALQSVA
Excerpt: as §1

IRAK1 = IRAK1 (Homo sapiens, UniProt P51617); details: read-out: Percent Control
IRAK1, sequence (P51617 whole entry): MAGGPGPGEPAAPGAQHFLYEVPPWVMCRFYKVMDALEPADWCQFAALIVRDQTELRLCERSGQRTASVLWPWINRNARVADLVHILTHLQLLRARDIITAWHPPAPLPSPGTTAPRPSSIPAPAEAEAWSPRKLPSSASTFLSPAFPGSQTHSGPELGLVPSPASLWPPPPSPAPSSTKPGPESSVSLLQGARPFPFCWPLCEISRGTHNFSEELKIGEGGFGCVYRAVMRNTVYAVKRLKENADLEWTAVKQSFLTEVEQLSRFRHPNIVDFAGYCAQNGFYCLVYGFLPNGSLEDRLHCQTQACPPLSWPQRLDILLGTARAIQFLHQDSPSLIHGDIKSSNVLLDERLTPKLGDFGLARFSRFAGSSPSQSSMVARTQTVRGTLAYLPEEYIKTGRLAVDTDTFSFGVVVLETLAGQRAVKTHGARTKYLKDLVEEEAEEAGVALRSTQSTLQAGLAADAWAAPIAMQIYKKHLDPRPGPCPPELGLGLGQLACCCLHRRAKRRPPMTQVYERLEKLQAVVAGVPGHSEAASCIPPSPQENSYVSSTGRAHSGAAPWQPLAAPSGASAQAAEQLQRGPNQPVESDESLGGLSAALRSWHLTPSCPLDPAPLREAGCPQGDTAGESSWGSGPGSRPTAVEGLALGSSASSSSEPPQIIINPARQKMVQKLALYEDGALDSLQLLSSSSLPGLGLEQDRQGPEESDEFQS
Excerpt: as §1

PIP5K2C = PIP5K2C (Homo sapiens, UniProt Q8TBX8); details: 1000 nM, read-out: Percent Control
Excerpt: as §1

GRK7 = GRK7 (Homo sapiens, UniProt Q8WTQ7); details: 1000 nM, read-out: Percent Control
Excerpt: as §1

VEGFR2 = VEGFR2 (Homo sapiens, UniProt P35968); details: 1000 nM, read-out: Percent Control
Excerpt: as §1

PIP5K2B = PIP5K2B (Homo sapiens, UniProt P78356); details: 1000 nM, read-out: Percent Control
Excerpt: as §1

HIPK2 = HIPK2 (Homo sapiens, UniProt Q9H2X6); details: 1000 nM, read-out: Percent Control
Excerpt: as §1

LZK = LZK (Homo sapiens, UniProt O43283); details: 1000 nM, read-out: Percent Control
Excerpt: as §1

TRKB = TRKB (Homo sapiens, UniProt Q16620); details: 1000 nM, read-out: Percent Control
Excerpt: as §1

ERK3 = ERK3 (Homo sapiens, UniProt Q16659); details: read-out: Percent Control
ERK3, sequence (Q16659 whole entry): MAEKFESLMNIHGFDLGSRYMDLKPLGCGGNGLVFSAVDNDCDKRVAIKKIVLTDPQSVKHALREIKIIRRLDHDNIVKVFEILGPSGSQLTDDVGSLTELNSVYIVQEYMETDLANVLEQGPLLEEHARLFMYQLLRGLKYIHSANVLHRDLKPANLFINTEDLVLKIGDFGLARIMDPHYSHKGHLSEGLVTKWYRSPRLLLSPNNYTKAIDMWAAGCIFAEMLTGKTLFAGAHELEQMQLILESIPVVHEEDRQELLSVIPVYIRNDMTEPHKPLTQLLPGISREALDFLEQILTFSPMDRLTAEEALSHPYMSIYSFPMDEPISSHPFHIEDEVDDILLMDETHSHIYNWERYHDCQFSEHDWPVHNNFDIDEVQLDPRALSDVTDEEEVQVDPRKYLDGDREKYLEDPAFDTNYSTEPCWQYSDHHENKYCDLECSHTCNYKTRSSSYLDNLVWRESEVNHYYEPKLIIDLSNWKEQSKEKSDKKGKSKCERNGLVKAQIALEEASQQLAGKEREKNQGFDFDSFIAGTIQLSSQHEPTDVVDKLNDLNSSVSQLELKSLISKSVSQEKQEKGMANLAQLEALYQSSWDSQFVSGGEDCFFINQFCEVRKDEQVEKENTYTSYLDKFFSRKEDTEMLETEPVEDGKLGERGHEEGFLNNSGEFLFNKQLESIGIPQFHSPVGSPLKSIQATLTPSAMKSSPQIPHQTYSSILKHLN
Excerpt: as §1

IRAK4 = IRAK4 (Homo sapiens, UniProt Q9NWZ3); details: compound concentration 100 nM; Entrez IRAK4; read-out: Percent Control
Excerpt: as §1

MAP3K2 = MAP3K2 (Homo sapiens, UniProt Q9Y2U5); details: compound concentration 100 nM; Entrez MAP3K2; read-out: Percent Control
Excerpt: as §1

OSR1 = OSR1 (Homo sapiens, UniProt O95747); details: 1000 nM, read-out: Percent Control
Excerpt: as §1

KIT = KIT (Homo sapiens, UniProt P10721); details: 1000 nM, read-out: Percent Control
Excerpt: as §1

MEK5 = MEK5 (Homo sapiens, UniProt Q13163); details: 1000 nM, read-out: Percent Control
Excerpt: as §1

MLK1 = MLK1 (Homo sapiens, UniProt P80192); details: compound concentration 100 nM; Entrez MAP3K9; read-out: Percent Control
Excerpt: as §1

PFTK1 = PFTK1 (Homo sapiens, UniProt O94921); details: 1000 nM, read-out: Percent Control
Excerpt: as §1

GSK3B = GSK3B (Homo sapiens, UniProt P49841); details: read-out: Percent Control
GSK3B, sequence (P49841 whole entry): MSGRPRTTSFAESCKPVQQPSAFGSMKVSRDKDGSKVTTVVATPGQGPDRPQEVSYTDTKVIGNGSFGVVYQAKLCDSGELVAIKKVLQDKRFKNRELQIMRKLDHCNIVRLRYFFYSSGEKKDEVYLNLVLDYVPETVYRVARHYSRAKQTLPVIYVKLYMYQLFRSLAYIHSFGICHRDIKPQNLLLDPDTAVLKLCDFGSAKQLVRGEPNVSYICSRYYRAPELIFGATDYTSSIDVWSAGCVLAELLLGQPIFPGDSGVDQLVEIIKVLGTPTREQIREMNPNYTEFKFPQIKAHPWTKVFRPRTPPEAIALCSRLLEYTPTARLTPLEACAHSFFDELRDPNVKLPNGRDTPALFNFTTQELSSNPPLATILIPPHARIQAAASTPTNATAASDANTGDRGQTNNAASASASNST
Excerpt: as §1

CAMK2A = CAMK2A (Homo sapiens, UniProt Q9UQM7); details: 1000 nM, read-out: Percent Control
Excerpt: as §1

CAMK1D, sequence (Q8IU85 whole entry): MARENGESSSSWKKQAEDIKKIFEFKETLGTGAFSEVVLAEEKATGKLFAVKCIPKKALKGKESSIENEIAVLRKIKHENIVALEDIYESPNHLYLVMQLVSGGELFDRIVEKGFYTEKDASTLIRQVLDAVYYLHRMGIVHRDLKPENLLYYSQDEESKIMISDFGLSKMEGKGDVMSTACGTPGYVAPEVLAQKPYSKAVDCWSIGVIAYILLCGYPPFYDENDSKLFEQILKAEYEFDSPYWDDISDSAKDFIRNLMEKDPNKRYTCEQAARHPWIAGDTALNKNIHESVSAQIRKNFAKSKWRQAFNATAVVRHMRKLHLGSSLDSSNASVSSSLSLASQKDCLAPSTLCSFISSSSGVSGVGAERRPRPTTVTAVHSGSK

CN1C(=O)[C@@H](N2CCc3c(nn(Cc4ccccc4)c3C(N)=O)C2=O)COc2cc(Cl)ccc21 [Compound 10, (S)-2-benzyl-6-(8-chloro-5-methyl-4-oxo-2,3,4,5-tetrahydrobenzo[b][1,4]oxazepin-3-yl)-7-oxo-4,5,6,7-tetrahydro-2H-pyrazolo[3,4-c]pyridine-3-carboxamide]
remaining binding at 1 µM (ACVR1): 91%
remaining binding at 1 µM (FES; 1000 nM): 100%
remaining binding at 0.1 µM (FES; compound concentration 100 nM, Entrez FES): 100%
remaining binding at 1 µM (CAMK1D; 1000 nM): 100%
remaining binding at 0.1 µM (CAMK1D; compound concentration 100 nM, Entrez CAMK1D): 92%
remaining binding at 0.1 µM (MAP3K1): 100%
remaining binding at 1 µM (IGF1R; 1000 nM): 100%
remaining binding at 0.1 µM (IGF1R; compound concentration 100 nM, Entrez IGF1R): 88%
remaining binding at 0.1 µM (STK35): 87%
remaining binding at 1 µM (ANKK1): 80%
remaining binding at 1 µM (IKK-epsilon): 75%
remaining binding at 1 µM (TAOK3): 96%
remaining binding at 1 µM (YES): 90%
remaining binding at 0.1 µM (YSK4): 88%
remaining binding at 1 µM (PDGFRA): 87%
remaining binding at 0.1 µM (TLK1): 88%
remaining binding at 1 µM (BMPR2; 1000 nM): 100%
remaining binding at 0.1 µM (BMPR2; compound concentration 100 nM, Entrez BMPR2): 90%
remaining binding at 0.1 µM (RET): 100%
remaining binding at 1 µM (ACVR2B): 94%
remaining binding at 0.1 µM (PRKCH): 92%
remaining binding at 1 µM (AURKB; 1000 nM): 100%
remaining binding at 0.1 µM (AURKB; compound concentration 100 nM, Entrez AURKB): 100%
remaining binding at 1 µM (IRAK1; 1000 nM): 100%
remaining binding at 0.1 µM (IRAK1; compound concentration 100 nM, Entrez IRAK1): 100%
remaining binding at 1 µM (PIP5K2C): 92%
remaining binding at 1 µM (GRK7): 98%
remaining binding at 1 µM (VEGFR2): 92%
remaining binding at 1 µM (PIP5K2B): 73%
remaining binding at 1 µM (HIPK2): 81%
remaining binding at 1 µM (LZK): 67%
remaining binding at 1 µM (TRKB): 76%
remaining binding at 1 µM (ERK3; 1000 nM): 100%
remaining binding at 0.1 µM (ERK3; compound concentration 100 nM, Entrez MAPK6): 87%
remaining binding at 0.1 µM (IRAK4): 100%
remaining binding at 0.1 µM (MAP3K2): 100%
remaining binding at 1 µM (OSR1): 74%
remaining binding at 1 µM (KIT): 89%
remaining binding at 1 µM (MEK5): 82%
remaining binding at 0.1 µM (MLK1): 89%
remaining binding at 1 µM (PFTK1): 79%
remaining binding at 1 µM (GSK3B; 1000 nM): 100%
remaining binding at 0.1 µM (GSK3B; compound concentration 100 nM, Entrez GSK3B): 100%
remaining binding at 1 µM (CAMK2A): 90%

Reference: publication PMC12090182, “Repurposing of the RIPK1-Selective Benzo[1,4]oxazepin-4-one Scaffold for the Development of a Type III LIMK1/2 Inhibitor” (ACS Chemical Biology, 2025)
